Assay results published in patent publication US11001872B2, “Designing customized protein-specific buffer system” (priority 2015, dated 2021).

Assays:
[1] = tested on: protein sample; test: Protein stability screen: protein melting point temperature in MES/BTP buffer mixture; type: physicochemical; settings: Hoefmeister Series screen; higher Tm
From the text: In one embodiment, the present invention contemplates a method comprising a physiologic buffer mixture having a temperature-stable pKa to identify test compounds that increase stability of a sample protein by performing a protein melting point temperature screen. […] Although it is not necessary to understand the mechanism of an invention it is believed that a protein stability screen acts to define the bulk properties of a solution system (i.e. impact of pH, ionic strength, buffer etc.) and not just one specific component like most of the other screening conditions. The buffer system also acts as an internal control that simultaneously compares new and old conditions under identical conditions. Although commonly used previously, a urea stability test provides validation and verification of all testing parameters by comparative analysis with historical literature. DMSO screening allows for the nomination of conditions where protein compounds are usually insoluble (e.g., for example, drug binding studies) to identify the proper use of DMSO to solubilize these compounds without effecting the performance of the intended assay.
See, FIG. 1. […] See, FIG. 3. […] See, FIG. 4. […] See, FIG. 5. […] See, FIG. 6.
A metal ion screen was performed that compared the relative effects of five (5) different metal chloride ions, each at two different concentrations. See, FIG. 7. […] See, FIG. 8.
In one embodiment, the kit instructions comprise the following steps: • i) pre-chill the RT-PCR plate at 4° C. for 15-30 minutes prior to the addition of reagents and/or protein sample to each of the wells. • ii) The dye vial and kit plates should be stored at −20° C. and away from light until the time of use. • iii) Add 5 μl of dye to 500 μl of protein sample. The dye to protein ratio can be modified to any particular protein. For example, smaller proteins or proteins with a small hydrophobic core may require an increased dye concentration. • iv) Transfer 5 μl of each solution from the well plate to a corresponding well of the RT-PCR plate. • v) Add 5 μl of the protein/dye mixture to each well of the RT-PCR plate (>0.5 mg/ml). • vi) Mix the solutions by pipetting up and down (˜5 times). • a) gently placing all solutions at the bottom of the avoids subsequent plate centrifugation. • vii) Seal the RT-PCR plate. • viii) Immediately load the TR-PCR plate into the instrument and begin the programmed heating schedule (approximate timeframe=62 minutes), for example: • a) Heat to 20 C • b) Ramp to 90 C in 0.5 C increments. • c) Ramp to 4 C with a two minute schedule. • ix) Upload stored data file to a designated website (e.g., for example, caymanchem.com/deltatm) and follow the instructions.

[2] = tested on: protein sample; test: Protein quality control screen: melting point temperature vs pH and NaCl concentration; type: physicochemical
From the text: In one embodiment, the present invention contemplates a method comprising a protein quality control screen. Although it is not necessary to understand the mechanism of an invention, it is believed that a quality control screen may be used to analyze: i) comparison of protein state prior to storage and post storage; ii) protein synthesis/purification lot-to-lot comparison; and iii) protein synthesis/purification batch testing. In one embodiment, the protein quality control screen measures protein melting point temperature while varying both pH concentration and ionic strength (e.g., for example, using a sodium chloride dose response curve). See, Table 1.
In one embodiment, a three dimensional map of the protein melting point temperatures is created by plotting the melting point determinations relative to pH and ionic strength. See. FIG. 15.

For `[Cl-].[Na+]` [sodium chloride], the “effect on protein stability (Tm)” value [1] was “improved the stability of the protein”, the protein melting point temperature ([2]; pH 5, NaCl Concentration 0.125) was 73 °C and the protein melting point temperature ([2]; pH 5, NaCl Concentration 0.25) was 73.5 °C. The protein melting point temperature ([2]; pH 5, NaCl Concentration 0.5) was 74.5 °C, the protein melting point temperature ([2]; pH 5, NaCl Concentration 0.75) was 76 °C and the protein melting point temperature ([2]; pH 5, NaCl Concentration 1) was 76.5 °C. For the same compound, the protein melting point temperature ([2]; pH 5, NaCl Concentration 1.25) was 77 °C, the protein melting point temperature ([2]; pH 5, NaCl Concentration 1.5) was 77 °C and the protein melting point temperature ([2]; pH 5, NaCl Concentration 1.75) was 76.5 °C. It also gave a protein melting point temperature ([2]; pH 5, NaCl Concentration 2) of 77 °C, a protein melting point temperature ([2]; pH 5.5, NaCl Concentration 0.125) of 75 °C and a protein melting point temperature ([2]; pH 5.5, NaCl Concentration 0.25) of 75 °C. The protein melting point temperature ([2]; pH 5.5, NaCl Concentration 0.5) was 75 °C, the protein melting point temperature ([2]; pH 5.5, NaCl Concentration 0.75) was 76 °C and the protein melting point temperature ([2]; pH 5.5, NaCl Concentration 1) was 76.5 °C. The protein melting point temperature ([2]; pH 5.5, NaCl Concentration 1.25) was 77 °C, the protein melting point temperature ([2]; pH 5.5, NaCl Concentration 1.5) was 77 °C and the protein melting point temperature ([2]; pH 5.5, NaCl Concentration 1.75) was 77.5 °C. For the same compound, the protein melting point temperature ([2]; pH 5.5, NaCl Concentration 2) was 77.5 °C, the protein melting point temperature ([2]; pH 6, NaCl Concentration 0.125) was 75 °C and the protein melting point temperature ([2]; pH 6, NaCl Concentration 0.25) was 76 °C. The protein melting point temperature ([2]; pH 6, NaCl Concentration 0.5) was 76 °C, the protein melting point temperature ([2]; pH 6, NaCl Concentration 0.75) was 76.5 °C and the protein melting point temperature ([2]; pH 6, NaCl Concentration 1) was 77 °C. It also gave a protein melting point temperature ([2]; pH 6, NaCl Concentration 1.25) of 77 °C, a protein melting point temperature ([2]; pH 6, NaCl Concentration 1.5) of 77 °C and a protein melting point temperature ([2]; pH 6, NaCl Concentration 1.75) of 78 °C. It also gave a protein melting point temperature ([2]; pH 6, NaCl Concentration 2) of 77.5 °C, a protein melting point temperature ([2]; pH 6.5, NaCl Concentration 0.125) of 76 °C and a protein melting point temperature ([2]; pH 6.5, NaCl Concentration 0.25) of 76.5 °C. It also gave a protein melting point temperature ([2]; pH 6.5, NaCl Concentration 0.5) of 76.5 °C, a protein melting point temperature ([2]; pH 6.5, NaCl Concentration 0.75) of 77 °C and a protein melting point temperature ([2]; pH 6.5, NaCl Concentration 1) of 77.5 °C. For the same compound, the protein melting point temperature ([2]; pH 6.5, NaCl Concentration 1.25) was 77.5 °C, the protein melting point temperature ([2]; pH 6.5, NaCl Concentration 1.5) was 77.5 °C and the protein melting point temperature ([2]; pH 6.5, NaCl Concentration 1.75) was 78 °C. For the same compound, the protein melting point temperature ([2]; pH 6.5, NaCl Concentration 2) was 78 °C, the protein melting point temperature ([2]; pH 7, NaCl Concentration 0.125) was 76 °C and the protein melting point temperature ([2]; pH 7, NaCl Concentration 0.25) was 76.5 °C. For the same compound, the protein melting point temperature ([2]; pH 7, NaCl Concentration 0.5) was 77 °C, the protein melting point temperature ([2]; pH 7, NaCl Concentration 0.75) was 77.5 °C and the protein melting point temperature ([2]; pH 7, NaCl Concentration 1) was 77.5 °C. For the same compound, the protein melting point temperature ([2]; pH 7, NaCl Concentration 1.25) was 77.5 °C, the protein melting point temperature ([2]; pH 7, NaCl Concentration 1.5) was 77.5 °C and the protein melting point temperature ([2]; pH 7, NaCl Concentration 1.75) was 77 °C. For the same compound, the protein melting point temperature ([2]; pH 7, NaCl Concentration 2) was 77 °C, the protein melting point temperature ([2]; pH 7.5, NaCl Concentration 0.125) was 76.5 °C and the protein melting point temperature ([2]; pH 7.5, NaCl Concentration 0.25) was 77.5 °C. The protein melting point temperature ([2]; pH 7.5, NaCl Concentration 0.5) was 77.5 °C, the protein melting point temperature ([2]; pH 7.5, NaCl Concentration 0.75) was 78 °C and the protein melting point temperature ([2]; pH 7.5, NaCl Concentration 1) was 77.5 °C. The protein melting point temperature ([2]; pH 7.5, NaCl Concentration 1.25) was 76.5 °C, the protein melting point temperature ([2]; pH 7.5, NaCl Concentration 1.5) was 76 °C and the protein melting point temperature ([2]; pH 7.5, NaCl Concentration 1.75) was 76 °C. The protein melting point temperature ([2]; pH 7.5, NaCl Concentration 2) was 75 °C, the protein melting point temperature ([2]; pH 8, NaCl Concentration 0.125) was 75.5 °C and the protein melting point temperature ([2]; pH 8, NaCl Concentration 0.25) was 77.5 °C. The protein melting point temperature ([2]; pH 8, NaCl Concentration 0.5) was 76.5 °C, the protein melting point temperature ([2]; pH 8, NaCl Concentration 0.75) was 77.5 °C and the protein melting point temperature ([2]; pH 8, NaCl Concentration 1) was 76.5 °C. For the same compound, the protein melting point temperature ([2]; pH 8, NaCl Concentration 1.25) was 76.5 °C, the protein melting point temperature ([2]; pH 8, NaCl Concentration 1.5) was 76 °C and the protein melting point temperature ([2]; pH 8, NaCl Concentration 1.75) was 75 °C. For the same compound, the protein melting point temperature ([2]; pH 8, NaCl Concentration 2) was 74.5 °C, the protein melting point temperature ([2]; pH 8.5, NaCl Concentration 0.125) was 75 °C and the protein melting point temperature ([2]; pH 8.5, NaCl Concentration 0.25) was 75.5 °C. It also gave a protein melting point temperature ([2]; pH 8.5, NaCl Concentration 0.5) of 76 °C, a protein melting point temperature ([2]; pH 8.5, NaCl Concentration 0.75) of 77 °C and a protein melting point temperature ([2]; pH 8.5, NaCl Concentration 1) of 76 °C. The protein melting point temperature ([2]; pH 8.5, NaCl Concentration 1.25) was 75 °C, the protein melting point temperature ([2]; pH 8.5, NaCl Concentration 1.5) was 75 °C and the protein melting point temperature ([2]; pH 8.5, NaCl Concentration 1.75) was 75 °C. It also gave a protein melting point temperature ([2]; pH 8.5, NaCl Concentration 2) of 74.5 °C, a protein melting point temperature ([2]; pH 9, NaCl Concentration 0.125) of 75 °C and a protein melting point temperature ([2]; pH 9, NaCl Concentration 0.25) of 75 °C. It also gave a protein melting point temperature ([2]; pH 9, NaCl Concentration 0.5) of 75.5 °C, a protein melting point temperature ([2]; pH 9, NaCl Concentration 0.75) of 75 °C and a protein melting point temperature ([2]; pH 9, NaCl Concentration 1) of 75 °C. For the same compound, the protein melting point temperature ([2]; pH 9, NaCl Concentration 1.25) was 75 °C, the protein melting point temperature ([2]; pH 9, NaCl Concentration 1.5) was 75 °C and the protein melting point temperature ([2]; pH 9, NaCl Concentration 1.75) was 74.5 °C. For the same compound, the protein melting point temperature ([2]; pH 9, NaCl Concentration 2) was 74 °C.
